Biological target: Keap1 (Homo sapiens (Human), UniProt Q14145)
Assay: HEK293 ARE luciferase assay
Assay type: cell-based
Conditions: HEK-293 ARE firefly luciferase transiently transfected cells; 18 h incubation; mean of 1 to 20 individual measurements
Summary of the method: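 Transiently transfected HEK-293 ARE firefly luciferase cells (10,000/well, DMEM with 10% FCS) exposed to compound, 10-point curve from 100 μM top, 0.3% DMSO, 18 h at 37 °C. SteadyGlo luminescence; activity normalised to 30 μM tBHQ (stimulator) and DMSO (neutral), activity threshold 50; means of 1-20 measurements.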

Keap1, sequence (Q14145 whole entry): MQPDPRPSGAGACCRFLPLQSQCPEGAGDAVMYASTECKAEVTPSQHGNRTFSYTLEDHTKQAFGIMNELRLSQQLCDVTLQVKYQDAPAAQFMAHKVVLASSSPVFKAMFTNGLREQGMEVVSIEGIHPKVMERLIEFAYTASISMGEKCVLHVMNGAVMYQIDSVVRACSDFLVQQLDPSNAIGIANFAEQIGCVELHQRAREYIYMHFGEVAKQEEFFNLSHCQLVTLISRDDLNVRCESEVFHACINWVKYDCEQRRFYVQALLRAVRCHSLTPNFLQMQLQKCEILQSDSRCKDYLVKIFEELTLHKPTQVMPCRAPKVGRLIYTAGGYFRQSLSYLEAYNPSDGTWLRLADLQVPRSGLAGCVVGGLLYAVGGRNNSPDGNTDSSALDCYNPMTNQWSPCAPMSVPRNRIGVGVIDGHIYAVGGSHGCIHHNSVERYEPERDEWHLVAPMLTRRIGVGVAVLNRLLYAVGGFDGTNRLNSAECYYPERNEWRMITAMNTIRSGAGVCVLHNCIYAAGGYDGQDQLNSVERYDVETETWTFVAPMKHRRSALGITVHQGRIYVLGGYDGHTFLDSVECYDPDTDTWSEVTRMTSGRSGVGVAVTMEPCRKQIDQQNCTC

| SMILES | EC50 |
| --- | --- |
| COC1(c2ncc(F)cc2-c2ccns2)C=C(C#N)C(=O)C(C)(C)C1 (stereo not drawn) [Compound 178, 3-[5-fluoro-3-(1,2-thiazol-5-yl)pyridin-2-yl]-3-methoxy-5,5-dimethyl-6-oxocyclohex-1-ene-1-carbonitrile] | 52 nM |
| COC1(c2ncc(F)cc2F)C=C(C#N)C(=O)C(C)(C)C1 (single isomer, unassigned) [Compound 44, 3-(3,5-difluoropyridin-2-yl)-3-methoxy-5,5-dimethyl-6-oxocyclohex-1-enecarbonitrile] | 37 nM |
| COC1(c2ccc(C)cn2)C=C(C#N)C(=O)C(C)(C)C1 (stereo not drawn) [Compound 239, 3-methoxy-5,5-dimethyl-3-(5-methylpyridin-2-yl)-6-oxocyclohex-1-ene-1-carbonitrile] | 50 nM |
| COC1(c2nc(C)c(Br)s2)C=C(C#N)C(=O)C(C)(C)C1 (stereo not drawn) [Compound 154, 3-(5-bromo-4-methyl-1,3-thiazol-2-yl)-3-methoxy-5,5-dimethyl-6-oxocyclohex-1-ene-1-carbonitrile] | 53 nM |
| COC1(c2ncc(F)cc2C(F)F)C=C(C#N)C(=O)C2(CC2)C1 (single isomer, unassigned) [Compound 63, 7-[3-(difluoromethyl)-5-fluoropyridin-2-yl]-7-methoxy-4-oxospiro[2.5]oct-5-ene-5-carbonitrile] | 18 nM |
| COC1(c2ncc(F)cn2)C=C(C#N)C(=O)C(C)(C)C1 (single isomer, unassigned) [Compound 216, 3-(5-fluoropyrimidin-2-yl)-3-methoxy-5,5-dimethyl-6-oxocyclohex-1-ene-1-carbonitrile] | 21 nM |
| COC1(c2cc(-c3cnn(C)c3)ccn2)C=C(C#N)C(=O)C(C)(C)C1 (stereo not drawn) [Compound 112, 3-methoxy-5,5-dimethyl-3-[4-(1-methyl-1H-pyrazol-4-yl)pyridin-2-yl]-6-oxocyclohex-1-ene-1-carbonitrile] | 371 nM |
| COC1(c2ncc(F)cc2-c2cnn(C3CCCC3)c2)C=C(C#N)C(=O)C(C)(C)C1 (single isomer, unassigned) [Compound 83, 3-[3-(1-cyclopentylpyrazol-4-yl)-5-fluoro-2-pyridyl]-3-methoxy-5,5-dimethyl-6-oxo-cyclohexene-1-carbonitrile] | 70 nM |
| COC1(c2ncc(F)cc2-c2cncc(OC(F)F)c2)C=C(C#N)C(=O)C(C)(C)C1 (single isomer, unassigned) [Compound 223, 3-[5′-(difluoromethoxy)-5-fluoro[3,3′-bipyridin]-2-yl]-3-methoxy-5,5-dimethyl-6-oxocyclohex-1-ene-1-carbonitrile] | 14 nM |
| COC1(c2ccc(Br)cn2)C=C(C#N)C(=O)C(C)(C)C1 (stereo not drawn) [Compound 113, 3-(5-bromopyridin-2-yl)-3-methoxy-5,5-dimethyl-6-oxocyclohex-1-ene-1-carbonitrile] | 343 nM |
| COC1(c2ncccc2C(F)F)C=C(C#N)C(=O)C(C)(C)C1 (single isomer, unassigned) [Compound 5, 3-(3-(difluoromethyl)pyridin-2-yl)-3-methoxy-5,5-dimethyl-6-oxocyclohex-1-enecarbonitrile] | 10 nM |
| COC1(c2cc(C(F)(F)F)ccn2)C=C(C#N)C(=O)C(C)(C)C1 (stereo not drawn) [Compound 1, 3-methoxy-5,5-dimethyl-6-oxo-3-[4-(trifluoromethyl)-2-pyridyl]cyclohexene-1-carbonitrile] | 408 nM |
| COC1(c2ccc(C)nc2C)C=C(C#N)C(=O)C(C)(C)C1 (stereo not drawn) [Compound 29, 3-(2,6-dimethylpyridin-3-yl)-3-methoxy-5,5-dimethyl-6-oxocyclohex-1-enecarbonitrile] | 91 nM |
| COC1(c2ncc(F)cc2-c2ccn3ncnc3c2)C=C(C#N)C(=O)C(C)(C)C1 (stereo not drawn) [Compound 190, 3-[5-fluoro-3-([1,2,4]triazolo[1,5-a]pyridin-7-yl)pyridin-2-yl]-3-methoxy-5,5-dimethyl-6-oxocyclohex-1-ene-1-carbonitrile] | 1680 nM |
| COc1cncc(-c2cc(F)cnc2C2(OC)C=C(C#N)C(=O)C(C)(C)C2)c1 (single isomer, unassigned) [Compound 237, 3-(5-fluoro-5′-methoxy[3,3′-bipyridin]-2-yl)-3-methoxy-5,5-dimethyl-6-oxocyclohex-1-ene-1-carbonitrile] | 20 nM |
| COc1ccccc1-c1cccc(C2(OC)C=C(C#N)C(=O)C(C)(C)C2)n1 (stereo not drawn) [Compound 119, 3-methoxy-3-[6-(2-methoxyphenyl)pyridin-2-yl]-5,5-dimethyl-6-oxocyclohex-1-ene-1-carbonitrile] | 141 nM |
| COC1(c2nc(C)c(-c3ccccn3)s2)C=C(C#N)C(=O)C(C)(C)C1 (stereo not drawn) [Compound 155, 3-methoxy-5,5-dimethyl-3-[4-methyl-5-(pyridin-2-yl)-1,3-thiazol-2-yl]-6-oxocyclohex-1-ene-1-carbonitrile] | 161 nM |

| SMILES | EC50 |
| --- | --- |
| COC1(c2ncc(F)cc2-c2cccnc2C)C=C(C#N)C(=O)C(C)(C)C1 (single isomer, unassigned) [Compound 79, 3-[5-fluoro-3-(2-methyl-3-pyridyl)-2-pyridyl]-3-methoxy-5,5-dimethyl-6-oxo-cyclohexene-1-carbonitrile] | 74 nM |
| COC1(c2ncc(F)cc2-c2cncc(Cl)c2)C=C(C#N)C(=O)C(C)(C)C1 (stereo not drawn) [Compound 185, 3-(5′-chloro-5-fluoro[3,3′-bypyridin]-2-yl)-3-methoxy-5,5-dimethyl-6-oxocyclohex-1-ene-1-carbonitrile] | 8 nM |
| CCOC1(c2ncccc2C(F)(F)F)C=C(C#N)C(=O)C(C)(C)C1 (single isomer, unassigned) [Compound 35, 3-ethoxy-5,5-dimethyl-6-oxo-3-(3-(trifluoromethyl)py-ridin-2-yl)cyclohex-1-enecarbonitrile] | 39 nM |
| COC1(c2cccc(C(F)(F)F)n2)C=C(C#N)C(=O)C(C)(C)C1 (stereo not drawn) [Compound 20, 3-methoxy-5,5-dimethyl-6-oxo-3-[6-(trifluoromethyl)-2-pyridyl]cyclo-hexene-1-carbonitrile] | 126 nM |
| COC1(c2ncc(Cl)cc2F)C=C(C#N)C(=O)C2(CC2)C1 (stereo not drawn) [Compound 157, 7-(5-chloro-3-fluoropyridin-2-yl)-7-methoxy-4-oxospiro[2.5]oct-5-ene-5-carbonitrile] | 448 nM |
| COC1(c2nc(C)c(-c3ccccn3)s2)C=C(C#N)C(=O)C(C)(C)C1 (single isomer, unassigned) [Compound 99, 3-methoxy-5,5-dimethyl-3-[4-methyl-5-(pyridin-2-yl)-1,3-thiazol-2-yl]-6-oxocyclohex-1-ene-1-carbonitrile] | 66 nM |
| COC1(c2cccc(-n3ccnc3C)n2)C=C(C#N)C(=O)C(C)(C)C1 (stereo not drawn) [Compound 12, 3-methoxy-5,5-dimethyl-3-[6-(2-methylimidazol-1-yl)-2-pyridyl]-6-oxo-cyclohexene-1-carbonitrile] | 119 nM |
| COC1(c2ncc(F)cc2-c2cncc(S(C)(=O)=O)c2)C=C(C#N)C(=O)C(C)(C)C1 (single isomer, unassigned) [Compound 235, 3-[5-fluoro-5′-(methylsulfonyl)[3,3′-bipyridin]-2-yl)-3-methoxy-5,5-dimethyl-6-oxocyclohex-1-ene-1-carbonitrile] | 79 nM |
| COC1(c2ncc(F)cc2-c2cnc(C)c(F)c2)C=C(C#N)C(=O)C(C)(C)C1 (single isomer, unassigned) [Compound 230, 3-(5,5′-difluoro-6′-methyl[3,3′-bipyridin]-2-yl)-3-methoxy-5,5-dimethyl-6-oxocyclohex-1-ene-1-carbonitrile] | 16 nM |
| COC1(c2ncc(F)cc2-c2cnn3ccccc23)C=C(C#N)C(=O)C(C)(C)C1 (single isomer, unassigned) [Compound 219, 3-[5-fluoro-3-(pyrazolo[1,5-a]pyridin-3-yl)pyridin-2-yl]-3-methoxy-5,5-dimethyl-6-oxocyclohex-1-ene-1-carbonitrile] | 5 nM |
| COC1(c2ncc(F)cc2-c2cccn(C)c2=O)C=C(C#N)C(=O)C(C)(C)C1 (stereo not drawn) [Compound 171, 3-(5-fluoro-1′-methyl-2′-oxo[1′,2′-dihydro[3,3′-bipyridine]]-2-yl)-3-methoxy-5,5-dimethyl-6-oxocyclohex-1-ene-1-carbonitrile] | 136 nM |
| COC1(c2ncc(F)cc2-c2cccn(C)c2=O)C=C(C#N)C(=O)C(C)(C)C1 (single isomer, unassigned) [Compound 75, 3-[5-fluoro-3-(1-methyl-2-oxo-3-pyridyl)-2-pyridyl]-3-methoxy-5,5-dimethyl-6-oxo-cyclohexene-1-carbonitrile] | 36 nM |
| COC1(c2ncc(F)cc2-c2cnc(C(F)(F)F)nc2)C=C(C#N)C(=O)C(C)(C)C1 (single isomer, unassigned) [Compound 210, 3-{5-fluoro-3-[2-(trifluoromethyl)pyrimidin-5-yl]pyridin-2-yl}-3-methoxy-5,5-dimethyl-6-oxocyclohex-1-ene-1-carbonitrile] | 20 nM |
| COC1(c2ncc(F)cc2-c2cnn(CC(F)(F)F)c2)C=C(C#N)C(=O)C(C)(C)C1 (single isomer, unassigned) [Compound 228, 3-{5-fluoro-3-[1-(2,2,2-trifluoroethyl)-1H-pyrazol-4-yl]pyridin-2-yl}-3-methoxy-5,5-dimethyl-6-oxocyclohex-1-ene-1-carbonitrile] | 15 nM |
| COC1(c2cccc(-c3cnn(C)c3)n2)C=C(C#N)C(=O)C2(CC2)C1 (single isomer, unassigned) [Compound 49, 7-methoxy-7-(6-(1-methyl-1H-pyrazol-4-yl)pyridin-2-yl)-4-oxospiro[2.5]oct-5-ene-5-carbonitrile] | 138 nM |
| COC1(c2ncc(F)cc2-c2ccnc(S(=O)(=O)N(C)C)c2)C=C(C#N)C(=O)C(C)(C)C1 (single isomer, unassigned) [Compound 207, 2-[3-cyano-1-methoxy-5,5-dimethyl-4-oxocyclohex-2-en-1-yl]-5-fluoro-N,N-dimethyl[3,4′-bipyridine]-2′-sulfonamide] | 48 nM |
